Source: patent US20210363110A1, “4-METHYLDIHYDROPYRIMIDINONE COMPOUNDS AND PHARMACEUTICAL USE THEREOF” (Japan Tobacco Inc., priority 2018, published 2021)

Tests used:
[1] = Metabolic stability in hepatocytes, human; format: in vitro ADME; conditions: residual ratio of unreacted substance, 1×10^6 cells/mL
Method: A test solution was prepared by diluting 10 mM DMSO solution of a test substance with acetonitrile by 20 times.
Human and animal cryopreserved hepatocyte (BIOIVT; Human (IVT-X008000), Rat (IVT-M00005), Monkey (IVT-M00305), Dog (IVT-M00205)) were adjusted with William's Medium E (SIGMA; W1878) to 1×10^6 cells/mL of a cell suspension, which was then added to a 96-well plate. Then, 1% of the solution of a test substance prepared was added to the reaction system, and the metabolic reaction was initiated. At a designated time, 0.1% formic acid-acetonitrile was added thereto, and the reaction was terminated.
The sample after termination of the reaction was separated by centrifugation (1400 g, 20 min.), and then the supernatant was measured by LC/MS (UPLC-SQD (waters)) to calculate a residual ratio of unreacted substances.

[2] = Rat pharmacokinetic (PK) assay and measurement of plasma concentrations; format: in vivo; conditions: male rat, 0.3 mg/kg, DMSO solution, T1/2=0.693/Kel
Method: A DMSO solution (0.1 mL/kg) of test substance (0.3 mg/kg) was administered to a male rat (7-week old), and blood was collected at designated times (5, 10, 15, 30 min., 1, 2, 4, 8, 25 hr). Samples after the blood collection were separated by centrifugation (11000 g, 5 min.) to obtain plasmas.
A double volume of a mixed solution of acetonitrile/water (9:1) was added to a plasma sample obtained in (1) in order that proteins were extracted from the mixture. The sample after extraction was separated by centrifugation (11000 g, 5 min.), and the supernatant was measured by LC/MSMS (Nexera (Shimadzu)-QTrap5500 (AB SCIEX)). A calibration curve was measured simultaneously, and plasma concentrations were calculated.
The elimination rate constant (Kel) was calculated from two points of the elimination phase in the plasma concentration profile, and the half-life (T1/2) was calculated from the elimination rate constant.
Kel=−(ln Conc1−ln Conc2)/(t1−t2)

Row | Metabolic stability in hepatocytes at 240 min., Human [1] [%] | half-life [2] [h] | Structure (SMILES)
1 | 94 | 13.2 | CC[C@H](C)C1=CN(C23CC(C(=O)O)(C2)C3)C(=O)N[C@@]1(C)c1ccc([C@@H]2C[C@H]2C(C)(C)C)c(Cl)c1 [Compound (2), 3-{(S)-5-((S)-sec-Butyl)-4-[4-((1R,2R)-2-tert-butyl-cyclopropyl)-3-chloro-phenyl]-4-methyl-2-oxo-3,4-dihydro-2H-pyrimidin-1-yl}bicyclo[1.1.1]pentane-1-carboxylic acid]
2 | 94 | 10.5 | CC(C)C1=CN(C23CC(C(=O)O)(C2)C3)C(=O)N[C@@]1(C)c1ccc([C@@H]2C[C@H]2C(C)(C)C)c(Cl)c1 [Compound (1), 3-{(S)-4-[4-((1R,2R)-2-tert-Butyl-cyclopropyl)-3-chloro-phenyl]-5-isopropyl-4-methyl-2-oxo-3,4-dihydro-2H-pyrimidin-1-yl}bicyclo[1.1.1]pentane-1-carboxylic acid]
